PMC4491109, “Synthesis and anticonvulsant activity of new N-phenyl-2-(4-phenylpiperazin-1-yl)acetamide derivatives” (Medicinal Chemistry Research, 2015)
Like-named read-outs stand apart in the source and are kept apart here.

Columns and labels:
[1] = test system: pentylenetetrazole-induced seizures; assay: Subcutaneous pentylenetetrazole (scPTZ) test, i.p. administration in mice; assay type: in vivo; details: Mus musculus, ip, doses of 30, 100 or 300 mg/kg
Experimental: (§1) Considering the aforementioned facts, the profile of anticonvulsant activity of final compounds 3–24 was established in the MES and scPTZ tests, after intraperitoneal (i.p.) injection in mice at doses of 30, 100 and 300 mg/kg. An observation was carried out at two different time intervals—0.5 and 4 h. Furthermore, in addition to the primary anticonvulsant screening, the acute neurological toxicity (NT) was determined in mice by the rotarod test.
(§2) Compounds 3–24 were pharmacologically preevaluated within the Antiepileptic Drug Development (ADD) Program in Epilepsy Branch, Neurological Disorders Program, National Institute of the Neurological and Communicative Disorders and Stroke (NIH/NINDS), Rockville, MD, USA, by using procedures described elsewhere (Krall et al., [1978]; Kupferberg, [1989]).
(§3) Phase I of the in vivo studies involved three tests: MES, scPTZ and rotarod test for NT. Male albino mice (CF#1 strain, weighing 18–25 g) and male albino rats (Sprague–Dawley) were used as experimental animals. The animals were housed in metabolic cages and allowed free access to food and water. The compounds were injected intraperitoneally to mice as a suspension in 0.5 % methylcellulose/water mixture at a dose level 30, 100 or 300 mg/kg with anticonvulsant activity and neurotoxicity assessment at 0.5 and 4 h after administration. Promising derivatives from phase I underwent phase VIa in which they were administrated orally into rats at a fixed dose of 30 mg/kg for both MES and the rotarod toxicity determination at five pretreatment times: 0.25, 0.5, 1, 2, 4 h. Groups of eight mice or four rats are employed.
(§4) The scPTZ test utilizes a dose of pentylenetetrazole (85 mg/kg in mice) that produces clonic seizures lasting for a period of at least 5 s in 97 % (CD97) of animals tested. PTZ is administered 0.5 and 4 h after injections of tested compounds, and observation is carried out for 30 min. In the control groups, the first episode of clonic convulsions is observed between 6 and 15 min of observation. The absence of clonic convulsions in the observed time period of […] is interpreted as the compound’s ability to protect against PTZ-induced seizures.

[2] = test system: maximal electroshock (MES) seizures; assay: MES test after oral administration in rats (screen and quantification); assay type: in vivo; details: for ED50: Rattus norvegicus, po, at TPE, 95 % confidence limits in parentheses; for PI (TD50/ED50), MES: protective index for MES
Experimental: This screen discloses the time of onset, the approximate time of peak effect (TPE) and the duration of anticonvulsant activity or neurotoxicity.
The quantitative evaluation of the MES median effective dose (ED50) and toxic dose (TD50) was performed at previously estimated TPE—2 h.
as §3
In the MES screen, an electrical stimulus of 0.2 s in duration (50 mA in mice and 150 mA in rats) is delivered via corneal electrodes primed with an electrolyte solution containing an anesthetic agent. The endpoint is the tonic extension of the hind limbs. […] Mice not displaying hind limb tonic extension are considered to be protected from seizures.

mice (rotarod test) = assay: Neurotoxicity screening (NT), rotarod test, i.p. administration in mice; assay type: in vivo; details: for dose showing neurotoxicity in the rotarod test (NT): ip
Experimental: as §1, §3
The neurological toxicity test (NT) induced by a compound was detected in mice or rats using standardized rotarod test (Dunham and Miya, [1957]). Untreated control mice or rats, when placed on the rod, can maintained their equilibrium for a prolonged time period.

[3] = test system: maximal electroshock (MES) seizures; assay: Maximal electroshock (MES) test, i.p. administration in mice; assay type: in vivo; details: Mus musculus, ip, doses of 30, 100 or 300 mg/kg
Experimental: as §1, §2, §3
In the MES screen, an electrical stimulus of 0.2 s in duration (50 mA in mice and 150 mA in rats) is delivered via corneal electrodes primed with an electrolyte solution containing an anesthetic agent. The endpoint is the tonic extension of the hind limbs. In the control groups, the procedures cause immediate hind limb tonic extension. Mice not displaying hind limb tonic extension are considered to be protected from seizures.

[4] = test system: 6-Hz psychomotor seizures; assay: Psychomotor seizure test (6-Hz), i.p. in mice; assay type: in vivo; details: 100 mg/kg; for 6-Hz, number of mice protected/number of mice tested, 0.25 h / 6-Hz, number of mice protected/number of mice tested, 0.5 h / 6-Hz, number of mice protected/number of mice tested, 1 h / 6-Hz, number of mice protected/number of mice tested, 2 h / 6-Hz, number of mice protected/number of mice tested, 4 h: current 32 mA
Text: In the next step of pharmacological investigations, four compounds 12, 19, 20 and 24 were chosen for the evaluation of anticonvulsant activity in the psychomotor 6-Hz test (Table 4). The selection was made randomly as a part of the search of molecules providing anti-6-Hz protection among chemically diversified compounds pursued in the NIH/NINDS. It should be noticed that 6-Hz screen has been validated as a model of therapy-resistant epilepsy (Barton et al., [2001]).
The 6-Hz model is an alternative electroshock paradigm that uses low-frequency (6 Hz), long-duration (3 s) electrical stimulation. Corneal stimulation (0.2 ms duration monopolar rectangular pulses at 6-Hz for 3 s) was delivered by a constant-current device. During the stimulation, mice were manually restrained and released into the observation cage immediately after the current application. The seizures manifest in “stunned” posture associated with rearing, forelimb, automatic movements and clonus, twitching the vibrissae and Straub–tail. The duration of the seizure activity ranges from 60 to 120 s in untreated animals. At the end of the seizure, animals resume their normal exploratory behavior. The experimental end point is protection against the seizure. The animal is considered to be protected if it resumes its normal exploratory behavior within 10 s from the stimulation (Brown et al., [1953]).

in vivo = details: male, Sprague-Dawley, rat, po
[5] = test system: pentylenetetrazole-induced seizures; assay: scPTZ test after p.o. administration in rats (quantification); assay type: in vivo; details: for ED50: Rattus norvegicus, po, at TPE, 95 % confidence limits in parentheses
Experimental: On the basis of the preliminary data in rats, compound 20 was chosen for quantification of the pharmacological parameters (ED50 and TD50) after p.o. application. The quantitative evaluation of the MES median effective dose (ED50) and toxic dose (TD50) was performed at previously estimated TPE—2 h.
as §4

rats (rotarod test) = assay: Neurotoxicity, rotarod test after p.o. administration in rats; details: at TPE, 95 % confidence limits in parentheses
MES seizures = test system: MES seizures; design: method as in Rogawski, 2006; details: even at high doses, ref Rogawski, 2006; cited from earlier work
PTZ seizures = test system: PTZ seizures; design: method as in Rogawski, 2006; details: even at high doses, ref Rogawski, 2006; cited from earlier work
[6] = test system: 6-Hz psychomotor seizures; design: method as in Rogawski, 2006; details: ref Rogawski, 2006; cited from earlier work
[7] = 0.5 h, read-out: scPTZ, minimum dose effective in half or more animals tested, 0.5 h
[8] = 4 h, read-out: scPTZ, minimum dose effective in half or more animals tested, 4 h
[9] = 0.5 h, read-out: MES, minimum dose effective in half or more animals tested, 0.5 h
[10] = 4 h, read-out: MES, minimum dose effective in half or more animals tested, 4 h

Row | Compound | minimal effective dose [1, 7] | minimal effective dose [1, 8] | MES, number of rats protected/number of rats tested, 0.25 h ([2]; p.o., 30 mg/kg) | MES, number of rats protected/number of rats tested, 0.5 h ([2]; p.o., 30 mg/kg) | MES, number of rats protected/number of rats tested, 1 h ([2]; p.o., 30 mg/kg) | MES, number of rats protected/number of rats tested, 2 h ([2]; p.o., 30 mg/kg, 2 h) | MES, number of rats protected/number of rats tested, 4 h ([2]; p.o., 30 mg/kg) | NT (rotarod), minimum dose neurotoxic in half or more animals tested, 0.5 h (mice (rotarod test); male, CF#1, mouse, in vivo) | dose showing neurotoxicity in the rotarod test (NT) (mice (rotarod test); male, CF#1, mouse, in vivo) | minimal effective dose [3, 9] | minimal effective dose [3, 10] | 6-Hz, number of mice protected/number of mice tested, 0.25 h [4] | 6-Hz, number of mice protected/number of mice tested, 0.5 h ([4]; 0.5 h) | 6-Hz, number of mice protected/number of mice tested, 1 h ([4]; 1 h) | 6-Hz, number of mice protected/number of mice tested, 2 h ([4]; 2 h) | 6-Hz, number of mice protected/number of mice tested, 4 h [4] | PI (TD50/ED50), MES ([2]; p.o.) | other results
1 | Cl.O=C(CN1CCOCC1)Nc1cccc(Cl)c1 [Compound 13, N-(3-chlorophenyl)-2-morpholino-acetamide monohydrochloride] | > 300 mg/kg | > 300 mg/kg | 0/4 | 1/4 | 0/4 | 0/4 | 0/4 | 300 mg/kg | 300 mg/kg | 100 mg/kg | 300 mg/kg |  |  |  |  |  |  | 
2 | Cl.O=C(CN1CCN(c2ccc(F)cc2)CC1)Nc1cccc(C(F)(F)F)c1 [Compound 19, 2-[4-(4-Fluorophenyl)piperazin-1-yl]-N-[3-(trifluoromethyl)phenyl]acetamide monohydrochloride] | > 300 mg/kg | > 300 mg/kg |  |  |  |  |  | 300 mg/kg | 300 mg/kg | 300 mg/kg | 100 mg/kg | 0/4 | 0/4 | 0/4 | 0/4 | 1/4 |  | 6-Hz, % of animals protected, 4 h [4]: 25%
3 | Cl.O=C(CN1CCN(c2cccc(C(F)(F)F)c2)CC1)Nc1cccc(C(F)(F)F)c1 [Compound 20, N-[3-(Trifluoromethyl)phenyl]-2-[4-[3-(trifluoromethyl)phenyl]piperazin-1-yl]acetamide monohydrochloride] | > 300 mg/kg | > 300 mg/kg | 0/4 | 1/4 | 0/4 | 2/4 | 0/4 |  |  | > 300 mg/kg | 100 mg/kg | 1/4 | 0/4 | 0/4 | 1/4 | 1/4 | >9.56 (MES) | TD50 at 2 h (in vivo): > 500 mg/kg; ED50 [2]: 52.3 mg/kg; MES, % of animals protected, 2 h ([2]; p.o., 30 mg/kg, 2 h): 50%; 6-Hz, % of animals protected, 0.25 h [4]: 25%; 6-Hz, % of animals protected, 2 h ([4]; 2 h): 25%; 6-Hz, % of animals protected, 4 h [4]: 25%
4 | O=C(CN1CCN(Cc2ccccc2)CC1)Nc1cccc(C(F)(F)F)c1 [Compound 22, 2-(4-Benzylpiperazin-1-yl)-N-[3-(trifluoromethyl)phenyl]acetamide] | > 300 mg/kg | > 300 mg/kg | 1/4 | 1/4 | 1/4 | 1/4 | 1/4 | 300^33 mg/kg |  | 300 mg/kg | > 300 mg/kg |  |  |  |  |  |  | response comment (adverse sign observed) (mice (rotarod test); mice, i.p., 300 mg/kg): tremors
5 | Cl.O=C(CN1CCOCC1)Nc1cccc(C(F)(F)F)c1 [Compound 24, 2-Morpholino-N-[3-(trifluoromethyl)phenyl]acetamide monohydrochloride] | > 300 mg/kg | > 300 mg/kg |  |  |  |  |  | 100 mg/kg | 100 mg/kg | 100 mg/kg | > 300 mg/kg | 4/4 | 2/4 | 3/4 | 0/4 | 0/4 |  | 6-Hz, % of animals protected, 0.25 h [4]: 100%; 6-Hz, % of animals protected, 0.5 h ([4]; 0.5 h): 50%; 6-Hz, % of animals protected, 1 h ([4]; 1 h): 75%
6 | O=C1NC(=O)C(c2ccccc2)(c2ccccc2)N1 [Phenytoin, reference compound] | > 300 mg/kg | > 300 mg/kg | 1/4 | 4/4 | 3/4 | 3/4 | 3/4 | 100 mg/kg |  | 30 mg/kg | 30 mg/kg |  |  |  |  |  | >3.6 (MES) | TD50 at 2 h (in vivo): > 100 mg/kg; ED50 [5]: > 500 mg/kg; ED50 [2]: 28.1 mg/kg; NT (rotarod), minimum dose neurotoxic in half or more animals tested, 4 h (mice (rotarod test); male, CF#1, mouse, in vivo, 4 h): 100 mg/kg
7 | CCCC(CCC)C(=O)O [Valproic acid] |  |  |  |  |  |  |  |  |  |  |  |  |  |  |  |  | 1.6 | ED50 [5]: 646 mg/kg; PI (TD50/ED50), scPTZ ([5]; protective index for scPTZ): 1.2; TD50 NT (rotarod) (rats (rotarod test)): 784 (503–1176) mg/kg
8 | CC[C@@H](C(N)=O)N1CCCC1=O [levetiracetam] |  |  |  |  |  |  |  |  |  |  |  |  |  |  |  |  |  | activity against classical MES seizures (in words) (MES seizures): inactive; activity against classical PTZ seizures (in words) (PTZ seizures): inactive; effectiveness in the 6-Hz psychomotor seizure model (in words) [6]: high effectiveness
